The values below are quoted from earlier work in PMC6007947, “Sensitivity of pretargeted immunoPET using ^68Ga-peptide to detect colonic carcinoma liver metastases in a murine xenograft model: Comparison with ^18FDG PET-CT” (Oncotarget, 2018).

For this series the following is noted: stated in discussion. From the text: Pretargeting is one way to improve tumor uptake and tumor to normal organ uptake ratios by reducing the molecular size of the radioactive agent and using a non-radiolabeled bispecific antibody, such as TF2. TF2 is a humanized bispecific monoclonal antibody produced by the Dock-and-Lock® technology, containing two anti-CEA Fab fragments and another Fab fragment binding the HSG hapten component of the IMP288 hapten peptide. Compared to previously used bispecific antibodies with a single binding site for the tumor antigen and another for the hapten, this bivalency is expected to increase t ...

With “DOTA-D-Tyr-D-Lys(HSG)-D-Glu-D-Lys(HSG)-NH2 [IMP288, DOTA-conjugated tetrapeptide containing two HSG hapten structures]”, the Clearance from blood result was “within an hour”.
